In US12448388B2, “PRMT5 inhibitors and uses thereof” (Gilead Sciences, Inc., priority 2023, dated 2025):
Read-outs that look alike come from different tables or passages of the source.

System: HCT116 MTAP-deleted cell lines
Assay: Cell viability assay (CellTiter-Glo, 7 days), HCT116 MTAP-deleted
Format: cell-based
Conditions: Homo sapiens, HCT-116, HCT116 MTAP-deleted, class symbols, read-out: CC50
How it was run: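 Read-out was CellTiter-Glo luminescence after a 7-day incubation (37 °C, 5% CO2) of HCT116 cells, MTAP-deleted or WT, on dose-response compound plates. CC50 values come from each line; where marked *, selectivity is overstated because poor solubility impaired the WT CC50 measurement.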

Compound | CC50 (cell viability) | CC50 (cell viability assay)
CC(C)N(Cc1ccc(-c2cnn(C(F)(F)F)c2)cc1F)C(=O)c1ccc2nc(N)c3cncn3c2c1 [Ff-50, 4-amino-N-(2-fluoro-4-(1-(trifluoromethyl)-1H-pyrazol-4-yl)benzyl)-N-isopropylimidazo[1,5-a]quinoxaline-8-carboxamide] | < 100 nM | –
Cc1ncc2c(N)nc3cc(F)c(C(=O)N(C)[C@@H]4COc5cc(OC(F)(F)F)ccc54)cc3n12 [Ff-564, (S)-4-amino-7-fluoro-N,1-dimethyl-N-(6-(trifluoromethoxy)-2,3-dihydrobenzofuran-3-yl)imidazo[1,5-a]quinoxaline-8-carboxamide] | – | < 100 nM
Cc1ncn2c1c(N)nc1cc(Cl)c(C(=O)N3CCC[C@@H]4OCc5nc(C(F)(F)F)ccc5[C@@H]43)cc12 [Ff-360, (4-amino-7-chloro-3-methylimidazo[1,5-a]quinoxalin-8-yl)((4aS,10bS)-8-(trifluoromethyl)-2,3,4,4a,6,10b-hexahydro-1H-pyrano[3,2-b:5,4-b′]dipyridin-1-yl)methanone] | < 100 nM | –
CN1CC[C@@H](N(Cc2ccc(C(F)(F)F)cc2F)C(=O)c2cc3c(cc2F)nc(N)c2cncn23)C1=O [Ff-70, 4-amino-7-fluoro-N-[[2-fluoro-4-(trifluoromethyl)phenyl]methyl]-N-[(3R)-1-methyl-2-oxo-pyrrolidin-3-yl]imidazo[1,5-a]quinoxaline-8-carboxamide] | < 100 nM | –
CN(C(=O)c1cc2c(cc1F)nc(N)c1cncn12)[C@@H]1COc2cc(Br)ccc21 [Ff-94, (S)-4-amino-N-(6-bromo-2,3-dihydrobenzofuran-3-yl)-7-fluoro-N-methylimidazo[1,5-a]quinoxaline-8-carboxamide] | < 100 nM | –
Cn1cc(N(Cc2ccc(C(F)(F)F)cc2F)C(=O)c2cc3c(cc2F)nc(N)c2cncn23)cn1 [Ff-45, 4-amino-7-fluoro-N-(2-fluoro-4-(trifluoromethyl)benzyl)-N-(1-methyl-1H-pyrazol-4-yl)imidazo[1,5-a]quinoxaline-8-carboxamide] | < 100 nM | –
Nc1nc2ccc(C(=O)N(Cc3ccc(OC(F)F)cc3F)C34CC(C3)C4)cc2n2cncc12 [Ff-264, 4-amino-N-(bicyclo[1.1.1]pentan-1-yl)-N-(4-(difluoromethoxy)-2-fluorobenzyl)imidazo[1,5-a]quinoxaline-8-carboxamide] | 100 to 1000 nM | –
C[C@H](c1ccc(C(F)(F)F)cc1F)N(C)C(=O)c1cc2c(cc1F)nc(N)c1cncn12 [Ff-534, (R)-4-amino-7-fluoro-N-(1-(2-fluoro-4-(trifluoromethyl)phenyl)ethyl)-N-methylimidazo[1,5-a]quinoxaline-8-carboxamide] | – | < 100 nM
Nc1nc2cc(F)c(C(=O)N3C[C@H](F)CC[C@@H]3c3ccc(C(F)(F)F)cn3)cc2n2cncc12 (single isomer, unassigned) [Ff-244] | < 100 nM | –
C[C@H]1CCN(C(=O)c2cc3c(cc2F)nc(N)c2cncn23)[C@@H](c2ccc(C(F)(F)F)cc2)C1 (racemic) [Ff-241, Rac-(4-amino-7-fluoroimidazo[1,5-a]quinoxalin-8-yl)((2R,4S)-4-methyl-2-(4-(trifluoromethyl)phenyl)piperidin-1-yl)methanone] | 100 to 1000 nM | –
Nc1nc2cc(F)c(C(=O)N3CCC[C@@H]4Oc5cc(F)ccc5[C@@H]43)cc2n2cncc12 [Fg-25, (4-amino-7-fluoroimidazo[1,5-a]quinoxalin-8-yl)((4aS,9bS)-7-fluoro-3,4,4a,9b-tetrahydrobenzofuro[3,2-b]pyridin-1(2H)-yl)methanone] | – | < 100 nM
CN(C(=O)c1cc2c(cc1F)nc(N)c1cncn12)[C@@H]1COc2c1ccc(OC(F)F)c2F [Ff-672, (S)-4-amino-N-(6-(difluoromethoxy)-7-fluoro-2,3-dihydrobenzofuran-3-yl)-7-fluoro-N-methylimidazo[1,5-a]quinoxaline-8-carboxamide] | – | < 100 nM
Nc1nc2cc(F)c(C(=O)N3CCO[C@@H]4Cc5c(ccc(C(F)F)c5F)[C@@H]43)cc2n2cncc12 [Ff-169, (4-amino-7-fluoroimidazo[1,5-a]quinoxalin-8-yl)((4aS,9aR)-7-(difluoromethyl)-8-fluoro-2,3,9,9a-tetrahydroindeno[2,1-b][1,4]oxazin-4(4aH)-yl)methanone] | < 100 nM | –
CN(C(=O)c1cc2c(cc1Cl)nc(N)c1cncn12)[C@@H]1COc2cc([C@@H]3C[C@H]3C#N)c(F)cc21 [Ff-443, Trans-4-amino-7-chloro-N-[(3S)-6-(2-cyanocyclopropyl)-5-fluoro-2,3-dihydrobenzofuran-3-yl]-N-methyl-imidazo[1,5-a]quinoxaline-8-carboxamide] | – | < 100 nM
CN(C(=O)c1cc2c(cc1F)nc(N)c1cncn12)[C@@H]1COCc2nc(C(F)(F)F)ccc21 [Ff-281, (S)-4-amino-7-fluoro-N-methyl-N-(2-(trifluoromethyl)-5,8-dihydro-6H-pyrano[3,4-b]pyridin-5-yl)imidazo[1,5-a]quinoxaline-8-carboxamide] | < 100 nM | –
COc1ccc2c(c1)CO[C@H]1CCCN(C(=O)c3cc4c(cc3F)nc(N)c3cncn34)[C@@H]21 (single isomer, unassigned) [Ff-390] | – | < 100 nM

Compound | CC50 (cell viability) | CC50 (cell viability assay)
Nc1nc2cc(F)c(C(=O)N(Cc3ccc(C(F)(F)F)cn3)c3cnn(-c4ccccc4)c3)cc2n2cncc12 [Ff-315, 4-amino-7-fluoro-N-(1-phenyl-1H-pyrazol-4-yl)-N-((5-(trifluoromethyl)pyridin-2-yl)methyl)imidazo[1,5-a]quinoxaline-8-carboxamide] | < 100 nM | –
Nc1nc2cc(F)c(C(=O)N3CCC[C@@H]4Oc5c(ccc(Cl)c5F)[C@@H]43)cc2n2cncc12 (racemic) [Ff-335, Rac-((4-amino-7-fluoroimidazo[1,5-a]quinoxalin-8-yl)((4aS,9bS)-7-chloro-6-fluoro-3,4,4a,9b-tetrahydrobenzofuro[3,2-b]pyridin-1(2H)-yl)methanone] | < 100 nM | –
C[C@@H]1CCN(C(=O)c2cc3c(cc2F)nc(N)c2cncn23)C(c2ccc(C(F)(F)F)cn2)C1 (stereo partly drawn) [Ff-224, (4-amino-7-fluoroimidazo[1,5-a]quinoxalin-8-yl)((4R)-4-methyl-2-(5-(trifluoromethyl)pyridin-2-yl)piperidin-1-yl)methanone] | 100 to 1000 nM | –
COc1ccc2c(c1F)CO[C@H]1CCCN(C(=O)c3cc4c(cc3F)nc(N)c3cncn34)[C@@H]21 (racemic) [Ff-299, Rac-(4-amino-7-fluoroimidazo[1,5-a]quinoxalin-8-yl)((4aS,10bS)-7-fluoro-8-methoxy-2,3,4,4a,6,10b-hexahydro-1H-isochromeno[4,3-b]pyridin-1-yl)methanone] | < 100 nM | –
Cc1ncc2c(N)nc3cnc(C(=O)N4C[C@@H](C)O[C@@H]5Cc6cc(Cl)ccc6[C@@H]54)cc3n12 (single isomer, unassigned) [Ff-463] | – | 100 to 1000 nM
C[C@H]1CN(C(=O)c2cc3c(cc2F)nc(N)c2cncn23)[C@H]2c3ccc(OC(F)(F)F)c(F)c3C[C@H]2O1 (single isomer, unassigned) [Ff-192] | < 100 nM | –
Cc1ncc2c(N)nc3cc(F)c(C(=O)N4CCC[C@@H]5OCc6nc(C(F)(F)F)ccc6[C@@H]54)cc3n12 [Ff-359, (4-amino-7-fluoro-1-methylimidazo[1,5-a]quinoxalin-8-yl)((4aS,10bS)-8-(trifluoromethyl)-2,3,4,4a,6,10b-hexahydro-1H-pyrano[3,2-b:5,4-b′]dipyridin-1-yl)methanone] | < 100 nM | –
CN(C(=O)c1cc2c(cc1F)nc(N)c1cncn12)[C@@H]1COc2cc(Cl)c(Cl)cc21 (single isomer, unassigned) [Ff-605] | – | < 100 nM
C[C@H]1CN(C(=O)c2cc3c(cc2F)nc(N)c2cncn23)[C@H]2Cc3ccccc3[C@H]2O1 (single isomer, unassigned) [Ff-623] | – | 100 to 1000 nM
CN(C(=O)c1cc2c(cc1F)nc(N)c1cncn12)[C@@H](c1ccc(C(F)(F)F)cc1)C(F)F [Fb-9, (S)-4-amino-N-(2,2-difluoro-1-(4-(trifluoromethyl)phenyl)ethyl)-7-fluoro-N-methylimidazo[1,5-a]quinoxaline-8-carboxamide] | < 100 nM | –
CN(C(=O)c1cc2c(cc1F)nc(N)c1cncn12)[C@@H]1COc2cc(-c3ccc(C(F)(F)F)cn3)ccc21 [Ff-238, (S)-4-amino-7-fluoro-N-methyl-N-(6-(5-(trifluoromethyl)pyridin-2-yl)-2,3-dihydrobenzofuran-3-yl)imidazo[1,5-a]quinoxaline-8-carboxamide] | < 100 nM | –
Nc1nc2cc(F)c(C(=O)N(Cc3ccc(-c4cnn(C(F)F)c4)cc3F)C34CC(C3)C4)cc2n2cncc12 [Ff-205, 4-amino-N-(bicyclo[1.1.1]pentan-1-yl)-N-(4-(1-(difluoromethyl)-1H-pyrazol-4-yl)-2-fluorobenzyl)-7-fluoroimidazo[1,5-a]quinoxaline-8-carboxamide] | < 100 nM | –
Nc1nc2cc(F)c(C(=O)N3CCC[C@@H]4OCc5nc(C(F)(F)F)ccc5[C@@H]43)cc2n2cncc12 [Ff-357, (4-amino-7-fluoroimidazo[1,5-a]quinoxalin-8-yl)((4aS,10bS)-8-(trifluoromethyl)-2,3,4,4a,6,10b-hexahydro-1H-pyrano[3,2-b:5,4-b′]dipyridin-1-yl)methanone] | < 100 nM | –
Cc1ncn2c1c(N)nc1ccc(C(=O)N3CCC[C@@H]4Oc5cc(OC(F)(F)F)ccc5[C@@H]43)cc12 (single isomer, unassigned) [Ff-400] | – | < 100 nM
C[C@H]1CN(C(=O)c2cc3c(cc2F)nc(N)c2cncn23)[C@H]2c3ccc(Br)c(F)c3C[C@H]2O1 (single isomer, unassigned) [Ff-164] | < 100 nM | –
CN(C(=O)c1cc2c(cc1F)nc(N)c1cncn12)C1CCc2cc(C(F)(F)F)ccc21 (centres unmarked) [Ff-309, 4-amino-7-fluoro-N-methyl-N-(5-(trifluoromethyl)-2,3-dihydro-1H-inden-1-yl)imidazo[1,5-a]quinoxaline-8-carboxamide] | < 100 nM | –
